Reference: PubChem BioAssay (NCI)
Where “and” joins values, the source holds several entries; their conditions need not be identical. Equal values may be shown once.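 Cells were grown in 96-well plates and exposed to each compound for 48 hours at five concentrations; endpoints were interpolated linearly between bracketing concentrations, or set to the highest concentration if not reached. GI50 = concentration required for 50% inhibition of growth. TGI is the concentration that stops growth completely.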

Columns and labels:
Assay in all cases: NCI tumour cell line growth inhibition, 48 h
BT-549 breast = system: BT-549 breast
CAKI-1 renal = system: CAKI-1 renal
DMS 114 small cell lung = system: DMS 114 small cell lung
HS 578T breast = system: HS 578T breast
M19-MEL melanoma = system: M19-MEL melanoma
OVCAR-5 ovarian = system: OVCAR-5 ovarian
RPMI-8226 leukemia = system: RPMI-8226 leukemia
SK-MEL-5 melanoma = system: SK-MEL-5 melanoma
ACHN renal = system: ACHN renal
SF-268 CNS = system: SF-268 CNS

| SMILES | GI50 (BT-549 breast) [µM] | TGI (BT-549 breast) | TGI (CAKI-1 renal) | TGI (DMS 114 small cell lung) | GI50 (HS 578T breast) | TGI (M19-MEL melanoma) | TGI (OVCAR-5 ovarian) | GI50 (RPMI-8226 leukemia) | TGI (RPMI-8226 leukemia) | TGI (SK-MEL-5 melanoma) | GI50 (ACHN renal) [µM] | TGI (ACHN renal) | GI50 (CAKI-1 renal) | GI50 (DMS 114 small cell lung) | TGI (HS 578T breast) | GI50 (M19-MEL melanoma) | GI50 (SF-268 CNS) | GI50 (SK-MEL-5 melanoma) [µM] | TGI (SF-268 CNS) |
| --- | --- | --- | --- | --- | --- | --- | --- | --- | --- | --- | --- | --- | --- | --- | --- | --- | --- | --- | --- |
| COc1cc([C@@H]2c3cc4c(cc3[C@@H](OC3OC5COC(C)OC5C(O)C3O)[C@H]3COC(=O)[C@H]23)OCO4)cc(OC)c1O (some centres not stated) | 1.83 | 41.2 µM and 35 µM and 6.05 µM | 31.4 µM and 77.1 µM and 49.2 µM | 24.6 µM and 66.8 µM | 2.86 µM and 5.72 µM | 50.3 µM and 332 µM | 64.2 µM and 121 µM and 169 µM | 14.8 µM and 2.41 µM | > 71.7 µM and 68 µM | 47.2 µM and 10.8 µM and 32.5 µM | – | – | – | – | – | – | – | – | – |
| C=C1C(C)C2C(Cc3ccccc3)NC(=O)C23C(OC(C)=O)C=CC(C)(O)C(=O)C(C)C/C=C/C3C1O (configuration not stated) | – | – | 1.12 µM and 1.66 µM | 65.6 µM and > 500 µM | 0.0185 µM and 0.0551 µM | 93.4 µM and > 500 µM | > 500 µM | 3.9 µM | 65.5 µM and > 500 µM | – | 1.28 | > 196 µM | 0.05 µM | 11.1 µM | 2.07 µM and 1.18 µM | 57.3 µM | 0.698 µM | 2.17 | – |
| Nc1nc(N)c(CCCCc2ccc([N+](=O)[O-])cc2)c(N)n1 | – | > 100 µM | > 100 µM | > 100 µM | – | > 100 µM | > 100 µM | – | > 100 µM | > 100 µM | – | > 100 µM | – | – | > 100 µM | – | – | – | > 100 µM |
| COc1cc2c(cc1O)CCN[C@@]21CS[C@H]2c3c(OC(C)=O)c(C)c4c(c3C(COC1=O)N1C2C2NC(Cc3cc(C)c(OC)c(O)c32)[C@@H]1O)OCO4 (some centres not stated) | – | – | 3.03 µM | 4.5 ng/mL | – | 4.5 ng/mL | 14.6 µM and 7.3e-07 µg/mL and 0.0045 µg/mL | – | > 100 µM and 6.4e-07 µg/mL | < 10 nM and 2.8e-07 µg/mL and 0.0045 µg/mL | – | 12.9 µM and 2e-06 µg/mL and 0.0045 µg/mL | 0.000294 ng/mL | 4.5 ng/mL | 0.302 µM | 4.5 ng/mL | 4.5 ng/mL | – | < 10 nM and 4.8e-07 µg/mL and 0.0045 µg/mL |
| COc1cc(C2c3cc4c(cc3[C@@H](Nc3ccc(F)cc3)C3COC(=O)[C@H]23)OCO4)cc(OC)c1O (some centres not stated) | – | 8.39 µM | 4.68 µM | 9.63 µM | – | 42.8 µM | 37 µM | 0.531 µM | 17.1 µM | 8.56 µM | 0.326 | 3.39 µM | 0.29 µM | 0.997 µM | – | – | – | 0.806 | 27.7 µM |
